# Experimental data: patent publication US10076522B2, “Systems and methods for treating bacterial infection” (priority 2016, dated 2018)
# Entries after “also recorded” stand apart in the source; their conditions may differ.
# What was measured:
# [1] = test system: isolated rabbit Purkinje fibers
# [2] = test system: acute bacterial skin and skin structure infections (ABSSSIs) suspected or confirmed to be due to Gram-positive pathogens; assay: Phase III REVIVE-1 study, efficacy of fixed dose iclaprim versus vancomycin; assay type: in vivo, human; details: ITT; for non-inferiority (10% margin) compared to vancomycin: 80 mg over 2 hr q12h IV
# Protocol: Subjects were evaluated daily up to ETP, then every 48 to 72 hours through the end of treatment. If the last dose of study drug fell on a day when an evaluation was not planned, an additional evaluation visit was performed on that day (i.e., all EOT evaluations were performed on the last day [+2 days] of drug dose).
# The infusion time and duration of treatment for both groups was 2 hours and 5 days (minimum duration) to 14 days (maximum duration), respectively.
# The primary endpoint for clinical response (defined as the reduction in lesion size ≥20% compared to baseline) was evaluated in all randomized subjects at ETP (48 to 72 hours post-first dose). […] In addition, clinical outcome was evaluated by the investigator at EOT and TOC (7 to 14 days post EOT). The assessments of clinical outcome was categorized as cure, failure, or indeterminate.
# Iclaprim was administered at a dose of 80 mg in 500 mL normal saline, infused over 2 hours q12h (every 12 hours) for 5 to 14 days. For subjects with moderate hepatic impairment (Child-Pugh Class B), iclaprim was administered at a dose of 40 mg in 500 mL normal saline, infused over 2 hours q12h for 5 to 14 days.
# Dosing interval was every q12 h, q24 h, q48 h, or dosed by daily level based on creatinine clearance.
# The primary efficacy endpoint was the proportion of randomized subjects who achieved an early clinical response (defined as reduction in the lesion size ≥20% compared to baseline) at 48 to 72 hours (ETP) and was evaluated among all randomized subjects (ITT population).
# The NI bound were 10%. […] Equivalently, if the lower bound of the two-sided 95% CI for P1-P2 was greater than −0.100 based on the Z test with unpooled variance estimate, NI was concluded.
# [3] = in vivo
# [4] = 13-week toxicology study in the marmoset, AUC at NOAEL; details: monkey, in vivo
# [5] = both, human, in vivo
# Protocol: A second single-dose ECG study was conducted on healthy human volunteers using weight-based doses of 0.4 mg/kg and 0.8 mg/kg iclaprim base infused over 30 minutes and 1.6 mg/kg infused over 60 minutes.
# [6] = Phase III REVIVE-1 study, safety (adverse events)
# Protocol: All subjects who received any study drug were evaluated for safety on the basis of medical history and physical examinations, reports of clinical AEs, routine electrocardiography, and clinically significant findings from routine liver function tests, serum chemistry, hematology, coagulation, and urinalysis (UA) tests. All adverse events were recorded throughout the study period, up to and including the LFU phone call. While blinded to treatment assignment, the investigator categorized the severity of each AE and the potential for relationship to study drug. Serious AEs (SAEs) include those that were life threatening, led to prolongation of the existing hospitalization, a congenital anomaly/birth defect, or caused persistent or significant disability, incapacity, or death. Treatment-emergent AEs (TEAEs) were defined as those that start or worsen in severity during or after the first dose of study drug administration through end of study.
# Safety evaluation included incidence of TEAEs, laboratory test results (including liver function tests), vital signs, ECG results, and physical examination findings. All summaries of safety data was based on the safety population (all treated subjects).
# The AE summary tables included subject (patient) counts. Therefore, if a subject experienced more than one episode of a particular AE, the subject was counted only once for that event. If a subject had more than one AE that was coded to the same preferred term, the subject was counted only once for that preferred term. Similarly, if a subject had more than one AE within a SOC, the subject was counted only once in that SOC.
# [7] = test system: S. aureus; assay: MIC90 in worldwide surveillance studies; assay type: cell-based; details: Staphylococcus aureus
# Description: The ASSIST-1 and ASSIST-2 studies used sparse sampling with a population PK analysis. The post-hoc estimates of the individual subject PK parameters were used to simulate the plasma iclaprim concentration-time profiles for each subject and, from those profiles, the corresponding values for Cmaxss, AUC0-24hss, AUC/MIC, and T>MIC.
# [8] = target: SCNSA sodium channel (Homo sapiens, UniProt Q14524); assay: Sodium channel inhibition
# [9] = clinical; details: human, in vivo
# [10] = 13-week toxicology study in the rat, AUC at NOAEL; details: in vivo
# [11] = clinical; details: human, in vivo, iv, 0.8 mg/kg, mean Cmax
# Protocol: (§1) For example, the PK profile of 0.8 mg/kg iclaprim administered by IV was investigated in 8 subjects with mild to moderate obesity (body mass index or “BMI” 30-40) and in 8 subjects with severe obesity (BMI>40). […] Linear regression analysis indicated a strong linear relationship between AUC (and Cmax) and BMI. Thus it was clear that the body composition of the subject affected the pharmacokinetics of IV administered iclaprim, with a greater percentage of body fat causing an increase in AUC and Cmax. […] Thus there is a risk of overdosing subjects with moderate hepatic impairment, which can be mitigated by reducing the IV iclaprim dose by about 50%.
# [12] = Exposure to iclaprim in Phase I studies; details: human, plasma, intravenous, HMR 01-014, Multiple Dose Q12H × 9 days, arithmetic mean
# [13] = PK of IV iclaprim in subjects with moderate hepatic impairment; assay type: in vivo, human; details: moderate hepatic impairment (Child-Pugh grade B)
# Protocol: as §1
# [14] = 150 mg, 150 mg/EtOH & NS (20 min)
# SCNSA sodium channel, sequence (Q14524 whole entry): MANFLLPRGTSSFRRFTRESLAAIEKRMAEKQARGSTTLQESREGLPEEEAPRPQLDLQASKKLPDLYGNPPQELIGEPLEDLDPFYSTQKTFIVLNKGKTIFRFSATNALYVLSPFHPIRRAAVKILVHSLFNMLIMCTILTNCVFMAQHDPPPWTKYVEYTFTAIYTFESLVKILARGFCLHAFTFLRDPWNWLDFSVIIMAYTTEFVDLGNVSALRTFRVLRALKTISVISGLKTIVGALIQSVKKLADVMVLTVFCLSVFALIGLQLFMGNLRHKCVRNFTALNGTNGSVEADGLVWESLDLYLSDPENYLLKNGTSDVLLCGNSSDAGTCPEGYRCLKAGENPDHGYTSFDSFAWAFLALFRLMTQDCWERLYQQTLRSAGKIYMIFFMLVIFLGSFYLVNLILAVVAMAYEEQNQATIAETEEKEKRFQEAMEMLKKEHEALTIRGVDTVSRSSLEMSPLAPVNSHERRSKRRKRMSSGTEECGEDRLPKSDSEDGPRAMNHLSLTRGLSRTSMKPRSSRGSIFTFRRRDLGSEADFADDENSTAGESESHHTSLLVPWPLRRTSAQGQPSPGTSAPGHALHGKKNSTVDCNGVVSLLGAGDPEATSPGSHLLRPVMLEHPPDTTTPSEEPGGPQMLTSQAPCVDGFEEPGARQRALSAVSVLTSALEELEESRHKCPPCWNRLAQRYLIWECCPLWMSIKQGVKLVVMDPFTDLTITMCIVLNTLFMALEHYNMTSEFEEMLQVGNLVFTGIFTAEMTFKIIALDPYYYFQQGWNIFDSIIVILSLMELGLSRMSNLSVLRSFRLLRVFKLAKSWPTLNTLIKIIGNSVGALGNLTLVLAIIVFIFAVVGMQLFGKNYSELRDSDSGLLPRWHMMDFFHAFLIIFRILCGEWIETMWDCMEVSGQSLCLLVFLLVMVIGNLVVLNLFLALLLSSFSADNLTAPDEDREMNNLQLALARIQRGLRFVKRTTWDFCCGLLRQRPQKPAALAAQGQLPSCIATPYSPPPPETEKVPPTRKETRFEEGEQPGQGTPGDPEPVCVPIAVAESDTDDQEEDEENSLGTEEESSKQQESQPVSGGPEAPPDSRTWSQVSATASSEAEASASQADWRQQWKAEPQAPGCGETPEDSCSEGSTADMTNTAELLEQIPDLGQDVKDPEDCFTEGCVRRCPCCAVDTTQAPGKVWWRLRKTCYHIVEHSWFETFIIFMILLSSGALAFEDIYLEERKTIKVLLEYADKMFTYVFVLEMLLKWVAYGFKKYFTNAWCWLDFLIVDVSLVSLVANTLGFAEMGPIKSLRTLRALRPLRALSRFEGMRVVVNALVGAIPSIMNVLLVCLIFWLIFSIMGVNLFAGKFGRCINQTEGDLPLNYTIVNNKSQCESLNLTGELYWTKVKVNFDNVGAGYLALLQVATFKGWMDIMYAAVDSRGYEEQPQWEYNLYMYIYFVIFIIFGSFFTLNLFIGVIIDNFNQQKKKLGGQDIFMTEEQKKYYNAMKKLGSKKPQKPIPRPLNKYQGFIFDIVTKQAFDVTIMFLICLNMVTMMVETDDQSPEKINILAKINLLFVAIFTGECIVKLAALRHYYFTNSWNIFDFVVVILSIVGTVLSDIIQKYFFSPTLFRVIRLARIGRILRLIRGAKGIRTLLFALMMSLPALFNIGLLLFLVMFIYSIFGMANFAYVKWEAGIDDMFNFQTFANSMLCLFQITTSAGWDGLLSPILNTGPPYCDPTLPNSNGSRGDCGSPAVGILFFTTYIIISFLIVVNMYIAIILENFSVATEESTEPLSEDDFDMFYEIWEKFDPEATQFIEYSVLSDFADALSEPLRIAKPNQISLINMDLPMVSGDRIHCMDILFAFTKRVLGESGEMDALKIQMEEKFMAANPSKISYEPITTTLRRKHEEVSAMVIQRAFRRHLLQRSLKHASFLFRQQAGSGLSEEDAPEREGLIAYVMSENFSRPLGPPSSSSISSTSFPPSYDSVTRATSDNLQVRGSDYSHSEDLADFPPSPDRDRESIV
smiles,measurement,setting,value
COc1cc(Cc2cnc(N)nc2N)c2c(c1OC)OC(C1CC1)C=C2 (racemic) [Iclaprim],concentration above which action potential duration was increased,[1],above 1 μM
same,non-inferiority (10% margin) compared to vancomycin,[2]; ETP,achieved the primary endpoint of non-inferiority; also recorded: non-inferior
same,non-inferiority (10% margin) compared to vancomycin,[2]; TOC,achieved NI
same,"Early Clinical Response (ECR), number of subjects",[2]; ETP (48 to 72 hours),241
same,"Early Clinical Response (ECR), percent of subjects",[2]; ETP (48 to 72 hours),80.9%
same,"Early Clinical Response (ECR), % Difference iclaprim vs vancomycin",[2]; ETP,−0.13%
same,"Clinical cure, number of subjects",[2]; TOC (7 to 14 days after study drug discontinuation),251
same,"Clinical cure, % Difference iclaprim vs vancomycin",[2]; TOC,−2.77%
same,"Clinical cure, percent of subjects",[2]; TOC,84.2%
same,dose-related increase in QTc,[3],did not
same,AUC at 13 week,[4]; female,26600 ng·h/mL
same,AUC at 13 week,[4]; male,26900 ng·h/mL
same,post-infusion QTcF prolongation from baseline (any subject),[5],≤ 60 ms
same,"Deaths, number of subjects",[6]; REVIVE-1 safety population,0
same,"Deaths, percent of subjects",[6]; REVIVE-1 safety population,0.0%
same,"Study drug related TEAEs, number of subjects","[6]; human, in vivo",57
same,"Study drug related TEAEs, percent of subjects","[6]; human, in vivo",19.5%
same,"TEAE-related SAEs (Serious AEs), number of subjects","[6]; human, in vivo",8
same,"TEAE-related SAEs (Serious AEs), percent of subjects","[6]; human, in vivo",2.7%
same,"TEAEs (Treatment Emergent Adverse Events), number of subjects","[6]; human, in vivo",151
same,"TEAEs (Treatment Emergent Adverse Events), percent of subjects","[6]; human, in vivo",51.5%
same,"TEAEs leading to discontinuation of study drug, number of subjects","[6]; human, in vivo",8
same,"TEAEs leading to discontinuation of study drug, percent of subjects","[6]; human, in vivo",2.7%
same,MIC90,[7],0.12 µg/mL
same,IC50,[8],95 µM
same,AUC,[9]; 0.25 mg/kg,598 ± 270 ng·h/mL
same,Cmax,[9]; 0.25 mg/kg,686 ± 279 ng/mL
same,AUC,[9]; 0.5 mg/kg,996 ng·h/mL
same,AUC,[9]; 1 mg/kg,1980 ng·h/mL
same,AUC,[9]; 2 mg/kg,4040 ng·h/mL
same,AUC,[9]; 4 mg/kg,6810 ng·h/mL
same,Cmax,[9]; 4 mg/kg,4020 ng/mL
same,AUC at 13 week,[10]; female,20400 ng·h/mL
same,AUC at 13 week,[10]; male,7260 ng·h/mL
same,Cmax,[11],854 ng/mL
same,AUC,"[12]; 75 mg, 75 mg/10% PG (20 min)",1660 ng·h/mL
same,Cmax,"[12]; 75 mg, 75 mg/10% PG (20 min)",1290 ng/mL
same,AUC,"[12]; 150 mg, 150 mg/10% PG (20 min)",3600 ng·h/mL
same,AUC,[12]; [14],3220 ng·h/mL
same,Cmax,"[12]; 150 mg, 150 mg/10% PG (20 min)",2350 ng/mL
same,Cmax,[12]; [14],1870 ng/mL
same,increase in AUC,[13],2.5 fold
same,increase in Cmax,[13],1.4 fold
